In article PMC10809383, “Synthesis and migrastatic activity of cytochalasin analogues lacking a macrocyclic moiety” (RSC Medicinal Chemistry, 2023):
“Also recorded” adds a separate entry of the source.

How the values were obtained:
[1] = tested on: HT1080 fibrosarcoma cells; assay: Fluorescence microscopy of actin cytoskeleton (SPY650-FastAct time-lapse); type: cell-based; settings: for effect on the actin cytoskeleton: 10 μM
Description: Next, we conducted experiments to assess the impact of compound 24, CytB (1) and CytD (2) on the actin cytoskeleton using fluorescence microscopy in HT1080 fibrosarcoma cells (Fig. 3). […] Therefore, we increased the concentration up to 50 μM.
HT1080 cells were seeded into 12-well glass bottom plate and stained with SPY650-FastAct™ following manufacturer's protocol. Untreated cells (control) were imaged every 20 s for 15 min using Leica TCS SP2 microscope (40×/0.6 dry objective). Afterwards, an inhibitor (compound 24 at 10 μM; 50 μM or compound 1 and 2 at 10 μM) was added into the same well and its effect was recorded for 15 min (20 s/image). All video recordings were analyzed using FiJi (Rasband, W.S., ImageJ, NIH, Bethesda, MD, USA).

[2] = target: T1, actin (Oryctolagus cuniculus, UniProt P68135); assay: Actin polymerization assay (pyrene-actin, Actin Polymerization Biochem Kit); type: biochemical; settings: 10 μM, in vitro
T1 construct: purchased Cytoskeleton, Inc, Denver, CO
Description: To further ascertain the compounds' interference with actin polymerization, the active compounds, along with CytB (1) as a positive control and compound 26 as a negative control, were subjected to an in vitro actin polymerization assay (Fig. 2B). […] This correlation between actin inhibitory activity and migrastatic effect underscores the pivotal role of actin polymerization inhibition in mediating the observed migrastatic activity.
Actin polymerization assay was performed using Actin Polymerization Biochem Kit™ (Cytoskeleton, Inc, Denver, CO) according to the manufacturer protocol. Briefly, 25 μL of G-buffer containing labelled pyrene-actin (0.4 mg mL^−1) and 2.48 μL of either DMSO (10 μM, control) or inhibitor (10 μM) was added in […] well plate. Actin polymerization was initiated by the addition of 2.48 μL of 10× actin polymerization buffer and analysed in time until fluorescent signal plateau was reached using a spectrophotometer (Infinite 200 PRO, Tecan Life Sciences, Tecan Group Ltd., Zürich, CHE). The fluorescence emission intensity of actin polymerization was measured at 420 nm and 360 nm was used as excitation wavelength. Statistical analysis was performed in GraphPad using one-way ANOVA. Measurements were performed in three independent repetitions each consisting of at least three technical replicates. For a representative graph from this assay, see ESI, ^† Fig. S2.

[3] = tested on: human melanoma cells (BLM); assay: WST-1 viability assay, BLM cells; type: cell-based; settings: for IC50: Homo sapiens, 72 h treatment, WST-1 assay, 2D culture, 0–50 μM; for selectivity index (SI): MRC-5 versus BLM, 72 h, WST-1
Description: (§1) In addition, the cytotoxic activity of compounds 17, 20, and 22–30 was assessed by the WST-1 viability assay using BLM (human melanoma) and MRC-5 (noncancerous human fibroblasts) cells growing in a monolayer (2D cultures, Table 2) after 72 h of treatment.
(§2) Human cells from melanoma (BLM) and human lung fibroblasts (MRC-5, Merck, USA) were used to evaluate in vitro cytotoxicity of the prepared compounds. The cells were maintained at the exponential phase of growth (passaging done by trypsin–EDTA solution) in DMEM and MEM, for BLM and MRC-5, respectively, with stable L-glutamine and supplemented with 10% fetal bovine serum (Thermo Fisher Scientific, USA). The cells were kept in an incubator at 37 °C, 5% CO2 in the atmosphere, and 95% humidity.
(§3) The compound cytotoxicity was determined by a WST-1 viability assay (Merck, USA). The amount of 5000 BLM and MRC-5 cells were seeded into individual wells of 96-well plates in 100 μL of cell cultivation media and maintained in an incubator for 16 h. After this period, the cells were treated with a concentration series (0–50 μM) of the tested compounds diluted in another 100 μL of cultivation media, which was added to the wells containing cells and incubated for 72 h. Then, BLM and MRC-5 cell viability was evaluated by WST-1 agent (5% v/v solution in phenol red-free DMEM media), i.e., the cell media was discarded and 100 μL of WST-1 solution was added. After 2 h incubation, the absorbance of formazan, derived from the WST-1 tetrazolium salt was determined spectrophotometrically at 450 nm (reference at 650 nm) by a UV-vis spectrophotometer (Bio-Rad, USA). Untreated cells, cells treated only with a vehicle, and cells treated with cytochalasin B (1) and D (2) served as controls. The measurement occurred in three independent repetitions each of which consisted of three technical replicates. The data were plotted as dose–response curves from which the half-maximal inhibitory concentrations (IC50) were calculated using AAT Bioquest.

[4] = tested on: human fibroblasts (MRC-5); assay: WST-1 viability assay, MRC-5 cells; type: cell-based; settings: MRC5, 72 h treatment, WST-1 assay, 2D culture, 0–50 μM
Description: as §1, §2, §3

[5] = tested on: human melanoma cell line BLM; assay: Spheroid invasion assay (migrastatic activity); type: cell-based; settings: 24 h; for migrastatic activity (cell migration, in words): 10 μM, BLM spheroid invasion; for rel. spheroid area: 10 µM, BLM spheroids in collagen, DMSO control 1.02
Description: Compounds 17, 20, and 22–30 were screened for their migrastatic activity using a spheroid invasion assay with the human melanoma cell line BLM.[46] Spheroids were formed and subsequently treated with cytochalasin analogues at a concentration of 10 μM for 24 h. CytB (1) and CytD (2) served as reference compounds for comparison. There was no significant increase in cell migration observed for any of the compounds tested. […] However, the effect was less profound than that of the reference compounds 1 and 2.
The spheroid invasion assay was performed following a previously published protocol.[63] Briefly, BLM cells were grown as spheroids using 3D Petri Dish (Microtissues). After 2 days of spheroid formation, 1.5 mg mL^−1 collagen solution (rat tail, collagen type I) was prepared (1.5 mg mL^−1 rat-tail collagen, 1× DMEM, 1% (v/v) FBS) and added at the bottom of a 96-well plate. Spheroids were embedded into the collagen (one spheroid per well) and covered with another layer of the gel. Collagen was polymerized at 37 °C and subsequently overlaid with a cultivation medium. Images of spheroids were taken with Leica TCS SP2 microscope (5×/0.15 dry objective; LAS X Life Science Microscope software) immediately after their seeding into collagen and again after 24 h. The area of the spheroids at 0 and 24 h was measured using FiJi (Rasband, W.S., ImageJ, NIH, Bethesda, MD, USA). Cellular invasiveness was determined as an increase in spheroid area within 24 h. Three independent experiments were conducted with at least 8 spheroids analysed in each experiment. Statistical analysis was performed in GraphPad using one-way ANOVA. For numeric data and representative images from this assay, see ESI, ^† Table S1 and Fig. S1.
Table S1: Spheroid invasion assay with BLM cell line at 10 µM concentration, 24 h.
Figure S1: Representative images of BLM cell spheroid invasion assay with or without
inhibitor. Images were taken at 0 h and 24 h. using a Leica TCS SP2 microscope (5x/0.15
dry objective). DMSO (first column) was used as a control. Scale bar 500 µm.

**Q.** Which results are given for `C=C1[C@@H](C)[C@H]2[C@H](Cc3ccccc3)NC(=O)[C@@]2(C(=O)OC)[C@@H](CCOCCc2ccccc2)[C@@H]1O` [Compound 24, Methyl (1S,3aS,4R,5S,7S,7aR)-1-benzyl-5-hydroxy-7-methyl-6-methylene-3-oxo-4-(2-phenethoxyethyl)octahydro-3aH-isoindole-3a-carboxylate]?
**A.** effect on the actin cytoskeleton ([1]; after 5 min): observable alterations became apparent; effect on the actin cytoskeleton ([1]; within 2 min of addition): no effect was observed; change in cell morphology ([1]; 50 μM, after 2 min): visible change in cell morphology was observed; inhibition of actin polymerization (in words) [2]: inhibit actin polymerization; also recorded: inhibition of actin polymerization; IC50 [3]: > 50 µM; cytotoxicity (in words) ([3]; WST-1, up to 50 μM, cell line not given): non-cytotoxic; IC50 [4]: > 50 µM; migrastatic activity (cell migration, in words) [5]: significant in vitro migrastatic activity; also recorded: significant decrease in cell migration; also recorded: most potent migrastatic activity; rel. spheroid area [5]: 0.46

**Q.** With `CC1=C[C@H](CCOCCc2ccccc2)[C@]2(CO)C(=O)N[C@@H](Cc3ccccc3)[C@@H]2[C@@H]1C` [Compound 30, (3S,3aR,4S,7S,7aS)-3-Benzyl-7a-(hydroxymethyl)-4,5-dimethyl-7-(2-phenethoxyethyl)-2,3,3a,4,7,7a-hexahydro-1H-isoindol-1-one] as the compound, how does the “inhibition of actin polymerization (in words)” value [2] read?
**A.** inhibit actin polymerization

**Q.** What about the IC50 [3] of the same compound?
**A.** > 50 µM

**Q.** And the IC50 [4]?
**A.** > 50 µM

**Q.** And the “migrastatic activity (cell migration, in words)” value [5]?
**A.** significant decrease in cell migration; also recorded: modest migrastatic activity

**Q.** And the rel. spheroid area [5]?
**A.** 0.50

**Q.** For `C=C1[C@@H](C)[C@H]2[C@H](Cc3ccccc3)NC(=O)[C@]23OC(=O)/C=C/[C@H](O)CCC[C@@H](C)C/C=C/[C@H]3[C@@H]1O` [CytB (1), cytochalasin B, reference compound], which “effect on the actin cytoskeleton” value ([1]; within 2 min of addition) is on record?
**A.** profound effect on the actin cytoskeleton

**Q.** What about the IC50 [3] of the same compound?
**A.** 26.2 ± 0.55 µM

**Q.** And the “selectivity index (SI)” value [3]?
**A.** 0.01

**Q.** What about the IC50 [4] of the same compound?
**A.** 0.27 ± 0.01 µM

**Q.** What about the rel. spheroid area [5] of the same compound?
**A.** 0.26

**Q.** Which “inhibition of actin polymerization (in words)” value [2] does the source give for `COC(=O)[C@@]12C(=O)N[C@@H](Cc3ccccc3)[C@@H]1[C@H](C)C(C)=C[C@@H]2CCCOCc1ccccc1` [Compound 20, Methyl (1S,3aR,4S,7S,7aR)-1-benzyl-4-(3-(benzyloxy)propyl)-6,7-dimethyl-3-oxo-1,2,3,4,7,7a-hexahydro-3aH-isoindole-3a-carboxylate] here?
**A.** inhibit actin polymerization

**Q.** What about the IC50 [3] of the same compound?
**A.** 28.4 ± 0.59 µM

**Q.** And the “selectivity index (SI)” value [3]?
**A.** 1.0

**Q.** And the IC50 [4]?
**A.** 28.6 ± 1.86 µM

**Q.** What about the “migrastatic activity (cell migration, in words)” value [5] of the same compound?
**A.** significant decrease in cell migration; also recorded: modest migrastatic activity

**Q.** And the rel. spheroid area [5]?
**A.** 0.56
